What was measured:
[1] = test system: A2058 cells; assay: Proliferation of A2058 cells (monolayer growth, crystal violet); type: cell-based, human; conditions: Homo sapiens, A2058; Table H; 10 μM, 96 hr; read-out: GROWTH (% OF CONTROL)
Experimental: For the clonogenic assay, aliquots of 50,000 cells per well (24 well plates) were grown under standard tissue culture conditions in the presence of increasing doses or test compound (0-10 μg/mL) or vehicle control. After 96 hr, the cells were gently washed with PBS, fixed, and stained with 0.5% crystal violet nuclear stain in 20% methanol. Excess stain was removed with tap water and bound stain was eluted with an equal volume solution of 01N sodium citrate (pH 4.2) and absolute ethanol. Optical density (O.D.) of eluted crystal violet stain was determined at 540 nm. The results of dose-dependent inhibition of tumor cell proliferation by compound 1 are shown in FIG. 5, in which the data are expressed as percent of untreated control cell proliferation for each cell type. The degree of inhibition varied with the cell type and was maximal (76%) for the A2058 cell line.
A2058 human melanoma cells were used to test the effect of compounds 1 and 3-25 on cellular proliferation. The cells were cultured in the presence of the test compounds (10 μM) for 96 hr. fixed and stained with crystal violet as described above. Growth inhibition was determined as a percent of control growth (using either DMSO or PEG-400 as the vehicle) for each compound. Each experiment was run a minimum of three times and the average of the results for each compound is provided in Table H and in FIGS. 20A and 20B.

[2] = test system: A2058 cells; assay: Colony formation (soft agar); type: cell-based, human
Experimental: Colony formation: Compound 1 was evaluated at three concentrations for inhibition of colony formation in both the A2058 and OVCAR3 cell lines. Colony number was determined in triplicate and compared to the vehicle control run on each 24 well plate to provide a percent. Colonies greater than 60 cells were counted at 100× under phase contrast. […] In a second study, selected compounds were evaluated for their effect on density-independent growth of the A2058 cell line in soft agar. Percent inhibition was determined over triplicate experiments involving three log molar concentrations of the test compound.

[3] = test system: CHOm5 cells; assay: Carbachol-stimulated arachidonic acid release; type: cell-based, Chinese hamster; conditions: Table K
Description: This example illustrates the effect of selected compounds on the release of arachidonic acid from carbachol-stimulated CHOm5 cells. Carbachol is a muscarinic agonist which in the muscarinic receptor transfected CHO cells stimulates the activation of phospholipase A2, resulting in arachidonic acid release and metabolism. Downstream metabolites of arachidonic acid, prostaglandins and leukotrienes are also second messengers.
The effect of compound 1 on arachidonic acid release from CHOm5 cells was determined by incubating the cells to isotopic equilibrium with labelled arachidonic acid, then washing the cells twice with 1 mL of serum-free media supplemented with 20 mM HEPES and 0.2% bovine serum albumin (fatty acid free) to trap the unincorporated labelled arachidonic acid, and then simultaneously adding carbachol (100 μM) and increasing concentrations of 1. After 15 min, the reaction was stopped by removing the incubation media which was then centrifuged at 10,000×g to eliminate any nonadherent cells.

[4] = test system: CHOm5 cells; assay: Carbachol-stimulated 45Ca2+ influx; type: cell-based, Chinese hamster; parameters: % Inhibition of 45Ca2+ Influx into CHOm5 Cells: concentration or dose not given beside the values; conditions: Table I; carbachol-stimulated
Experimental: (§1) Calcium influx was determined using two methods. The first method involved the use of ^45 Ca^2+, while the second method utilized a fluorescent intracellular calcium chelator, Fura-2. The method using Fura-2 is semi-quantitative and is preferred for kinetic analysis and screening whereas the ^45 Ca^2+ method is quantitative.
CHOm5 cells in monolayer culture were washed free of serum-containing media and incubated with either carbachol or the calcium ionophore A23187 (from Molecular Probes, Eugene, Oreg., USA) in the presence of ^45 Ca^2+ and defined buffer (E2 medium with 0.1 mM MgCl2 and 1.0 mM CaCl2). After incubation for 5 min, the radioactive buffer was rapidly and repeatedly washed off with media containing LaCl3, a competitor of calcium efflux. The cell monolayer was solubilized and the calcium uptake was determined by scintillation counting.
Stimulated uptake of radiolabelled calcium was measured as described above. The abbreviations CTL and CC are control and carbachol-stimulated calcium influx values. respectively.

[5] = test system: A2058 cells; assay: Ca2+ influx (receptor-operated); type: cell-based, human
Experimental: as §1
Additionally, CHOm5 cells and A2058-1F5 human melanoma cells adherent to glass coverslips, which had been precoated with collagen or poly-L lysine to promote adhesion, were loaded with the fluorescent intracellular calcium chelator, fura-2AM. This chelator penetrates cells where it is hydrolyzed to fura-2 which remains trapped in the cells. Excess fura-2AM is washed off the cells. Cells are studied in serum-free E2 media, containing known amounts of calcium and magnesium. The cells are subjected to treatment with carbachol (10 μM) with or without compounds 1 and 2, and with appropriate vehicle controls (DMSO or PEG-400) in a perifusion apparatus. This ligand is known to stimulate intracellular release of calcium and influx of extracellular calcium. Emitted light is measured at 510 nm after excitation at 340 and 380 nm, with the ratio of fluorescence of fura-2 being directly correlated with intracellular calcium concentrations.
Stimulated uptake of radiolabelled calcium was measured as described above. […]

[6] = test system: 5R ras-transfected rat embryo fibroblast cell line; assay: Experimental pulmonary metastasis, tumor cells pretreated in vitro; type: in vivo, nude mice; conditions: cells treated overnight, 1-10 μM; 10 d
Experimental: This example illustrates the effect of selected compounds on the development of experimental pulmonary metastases, when the tumor cells are first incubated with the compound in vitro and subsequently injected into the tail vein of nude mice. In this example, both the 5R ras-transfected rat embryo fibroblast cell line and the HT-29 human colon cancer cell line were evaluated.
The 5R ras-transfected rat embryo fibroblast cell line forms confluent pulmonary metastases within 2-3 weeks after inoculation. For the experimental metastasis assay, 5R cells were treated in culture overnight with the test compounds (1-10 μM). After culture, the cells were harvested, washed and injected into the tail vein of six-week old nude mice. After 10 d, the mice were humanely sacrificed and the lungs were removed and fixed in Bouin's solution. The visible pulmonary metastases were counted.

[7] = test system: signal transduction and tumor growth; assay: Biological and biochemical assays, summary; type: cell-based; conditions: summary of all assays
Description: Compound 1 was inhibitory for the biological and biochemical assays.

[8] = test system: production of PGE2 and PGF2a; conditions: Honn, et al.; cited from earlier work

Compound	activity at 10 µM [1] [%]	COLONY FORMATION (% OF CONTROL) ([2]; Table H, soft agar)	Colony Formation (% of Control) ([2]; Table K)	Arachidonic Acid Release (% of Control) [3]	% Inhibition of 45Ca2+ Influx into CHOm5 Cells [4] [%]	inhibition of stimulated changes in intracellular calcium [5]	inhibition of pulmonary colonization [6] [%]	inhibition in the biological and biochemical assays [7]	inhibition of phorbol ester-stimulated production of PGE2 and PGF2a [8]
NC(=O)c1nnn(Cc2ccc(C(=O)c3ccccc3)cc2)c1N [Compound 8]	92.7 ± 9	93.4 ± 3	93.4 ± 3 % of Control	100 ± 15 % of Control	0	failed to inhibit	14	did not inhibit any of the test assays	
COc1ccc2c(c1)c(CC(=O)O)c(C)n2C(=O)c1ccc(Cl)cc1 [indomethacin]									selectively inhibited

— patent US5482954A, “Signal transduction inhibitor triazole and diazole compounds” (priority 1994, dated 1996)
